Changes are numbered by the printed parent chain.
Tests used:
IDH2 R172K = molecular target: T1, IDH2 R172K (Homo sapiens, UniProt P48735, R172K); assay: IDH2 R172K enzymatic assay (NADPH cofactor depletion, diaphorase/resazurin readout); format: biochemical; conditions: read-out: Enz R172K
T1 sequence (P48735 40-452 R172K): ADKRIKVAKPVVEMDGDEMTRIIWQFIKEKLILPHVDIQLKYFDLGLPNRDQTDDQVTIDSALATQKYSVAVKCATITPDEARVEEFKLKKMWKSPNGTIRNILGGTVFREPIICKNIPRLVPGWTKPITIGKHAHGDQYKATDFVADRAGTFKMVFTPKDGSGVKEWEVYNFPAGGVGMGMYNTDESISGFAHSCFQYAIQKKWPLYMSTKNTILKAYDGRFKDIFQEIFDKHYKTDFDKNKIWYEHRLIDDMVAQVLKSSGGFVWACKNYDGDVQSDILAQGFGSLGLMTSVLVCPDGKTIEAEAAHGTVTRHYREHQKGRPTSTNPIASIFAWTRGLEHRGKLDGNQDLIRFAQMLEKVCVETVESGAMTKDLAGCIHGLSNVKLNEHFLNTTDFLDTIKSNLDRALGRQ
Procedure, shortened: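 Residual NADPH is read out as resorufin fluorescence after quenching with 36 μg/ml diaphorase and 60 μM resazurin in stop mix. The stop follows a 1 h room-temperature reaction started by a substrate mix of NADPH (50 μM) and α-KG (6.3 mM), with compound preincubated with enzyme for 1 h beforehand.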

IDH2 R140Q = molecular target: T2, IDH2 R140Q (Homo sapiens, UniProt P48735, R140Q); assay: IDH2 R140Q enzymatic assay (cofactor depletion, similar format); format: biochemical; conditions: read-out: Enz R140Q
T2 sequence (P48735 40-452 R140Q): T1 sequence (P48735 40-452 R172K) with R101Q, K133R

[1] = tested on: U87MG pLVX-IDH2 R140Q-neo cells; assay: U87MG pLVX-IDH2 R140Q-neo cell based assay, 2-HG in media by LC-MS at 48 hours; conditions: Homo sapiens, U-87 MG
Procedure, shortened: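 2-HG secreted into the medium was measured by LC-MS after 48 h of compound treatment (0.2% DMSO final) of U87MG pLVX-IDH2 R140Q-neo cells in DMEM/10% FBS. The same wells were assayed at 72 h by CellTiter-Glo luminescence for effects on growth.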

c1ccc(-c2nc(NCC3CC3)nc(Nc3ccncc3)n2)cc1 [Compound 216, N^2-(cyclopropylmethyl)-6-phenyl-N^4-(pyridin-4-yl)-1,3,5-triazine-2,4-diamine] gave an IC50 (IDH2 R172K) of 100 to 1000 nM, an IC50 (IDH2 R140Q) of less than 100 nM and an IC50 [1] of 100 to 1000 nM.
CC1(Nc2nc(Nc3ccncc3)nc(-c3ccccc3)n2)CC1 [Compound 218, N^2-(1-methylcyclopropyl)-6-phenyl-N^4-(pyridin-4-yl)-1,3,5-triazine-2,4-diamine] gave an IC50 (IDH2 R172K) of 1000 to 10000 nM, an IC50 (IDH2 R140Q) of less than 100 nM and an IC50 [1] of 100 to 1000 nM.
CC1CC1Nc1nc(Nc2ccncc2)nc(-c2ccccc2)n1 (stereo not drawn) [Compound 219, N^2-(2-methylcyclopropyl)-6-phenyl-N^4-(pyridin-4-yl)-1,3,5-triazine-2,4-diamine] gave an IC50 (IDH2 R172K) of 100 to 1000 nM, an IC50 (IDH2 R140Q) of less than 100 nM and an IC50 [1] of less than 100 nM.
With CCC(C)CNc1nc(Nc2ccncc2)nc(-c2ccccc2)n1 (stereo not drawn) [Compound 220, N^2-(2-methylbutyl)-6-phenyl-N^4-(pyridin-4-yl)-1,3,5-triazine-2,4-diamine] the IC50 (IDH2 R172K) was 100 to 1000 nM, the IC50 (IDH2 R140Q) was less than 100 nM and the IC50 [1] was less than 100 nM.
With CC1(CNc2nc(Nc3ccncc3)nc(-c3ccccc3)n2)CCCO1 (stereo not drawn) [Compound 221, N^2-((2-methyltetrahydrofuran-2-yl)methyl)-6-phenyl-N^4-(pyridin-4-yl)-1,3,5-triazine-2,4-diamine] the IC50 (IDH2 R172K) was 1000 to 10000 nM, the IC50 (IDH2 R140Q) was 100 to 1000 nM and the IC50 [1] was 100 to 1000 nM.
Molecule CC(C)Nc1nc(Nc2ccnc(F)c2)nc(-c2ccccc2)n1 [Compound 223, N^2-(2-fluoropyridin-4-yl)-N^4-isopropyl-6-phenyl-1,3,5-triazine-2,4-diamine] has an IC50 (IDH2 R172K) of less than 100 nM, an IC50 (IDH2 R140Q) of less than 100 nM and an IC50 [1] of less than 100 nM.
CCNc1cc(Nc2nc(NC(C)C)nc(-c3ccccc3)n2)ccn1 [Compound 224, N^2-(2-(ethylamino)pyridin-4-yl)-N^4-isopropyl-6-phenyl-1,3,5-triazine-2,4-diamine] showed an IC50 (IDH2 R172K) of 100 to 1000 nM, an IC50 (IDH2 R140Q) of less than 100 nM and an IC50 [1] of 100 to 1000 nM.
Molecule COCCNc1nc(Nc2ccccc2)nc(-c2ccccc2)n1 [Compound 225, N^2-(2-methoxyethyl)-N^4,6-diphenyl-1,3,5-triazine-2,4-diamine] has an IC50 (IDH2 R172K) of 1000 to 10000 nM, an IC50 (IDH2 R140Q) of less than 100 nM and an IC50 [1] of 100 to 1000 nM.
In the case of CC(C)Nc1nc(Nc2ccncc2)nc(-c2ccccc2Cl)n1 [Compound 226, 6-(2-chlorophenyl)-N^2-isopropyl-N^4-(pyridin-4-yl)-1,3,5-triazine-2,4-diamine], the IC50 (IDH2 R172K) is reported as 100 to 1000 nM, the IC50 (IDH2 R140Q) is reported as less than 100 nM and the IC50 [1] is reported as 100 to 1000 nM.
CC(C)Nc1nc(Nc2ccncc2)nc(-c2ccccc2F)n1 [Compound 227, 6-(2-fluorophenyl)-N^2-isopropyl-N^4-(pyridin-4-yl)-1,3,5-triazine-2,4-diamine] was tested, and the IC50 (IDH2 R172K) was 100 to 1000 nM, the IC50 (IDH2 R140Q) was less than 100 nM and the IC50 [1] was less than 100 nM.
CC(C)Nc1nc(Nc2ccccc2)nc(-c2cc(Cl)ccn2)n1 [Compound 228, 6-(4-chloropyridin-2-yl)-N^2-isopropyl-N^4-phenyl-1,3,5-triazine-2,4-diamine] showed an IC50 (IDH2 R172K) of 100 to 1000 nM, an IC50 (IDH2 R140Q) of less than 100 nM and an IC50 [1] of 100 to 1000 nM.
Molecule CC(C)Nc1nc(Nc2ccccc2)nc(-c2cccc(Cl)n2)n1 [Compound 229, 6-(6-chloropyridin-2-yl)-N^2-isopropyl-N^4-phenyl-1,3,5-triazine-2,4-diamine] has an IC50 (IDH2 R172K) of less than 100 nM, an IC50 (IDH2 R140Q) of less than 100 nM and an IC50 [1] of less than 100 nM.
CC(C)Nc1nc(Nc2ccccc2)nc(-c2ncccc2Cl)n1 [Compound 230, 6-(3-chloropyridin-2-yl)-N^2-isopropyl-N^4-phenyl-1,3,5-triazine-2,4-diamine] was tested, and the IC50 (IDH2 R172K) was 100 to 1000 nM, the IC50 (IDH2 R140Q) was 100 to 1000 nM and the IC50 [1] was 100 to 1000 nM.
O=C(Nc1nc(Nc2ccccc2)nc(-c2ccccc2)n1)OCC1CC1 [Compound 232, cyclopropylmethyl 4-phenyl-6-(phenylamino)-1,3,5-triazin-2-ylcarbamate] showed an IC50 (IDH2 R172K) of 100 to 1000 nM, an IC50 (IDH2 R140Q) of less than 100 nM and an IC50 [1] of 100 to 1000 nM.
For O=C(Nc1nc(Nc2ccccc2)nc(-c2ccccc2)n1)C1CC1 [Compound 233, N-(4-phenyl-6-(phenylamino)-1,3,5-triazin-2-yl)cyclopropanecarboxamide], the IC50 (IDH2 R172K) was 100 to 1000 nM, the IC50 (IDH2 R140Q) was less than 100 nM and the IC50 [1] was less than 100 nM.
Work on c1ccc(-c2nc(Nc3ccncc3)nc(NC3CCOC3)n2)cc1 (stereo not drawn) [Compound 235, 6-phenyl-N^2-(pyridin-4-yl)-N^4-(tetrahydrofuran-3-yl)-1,3,5-triazine-2,4-diamine] yielded an IC50 (IDH2 R172K) of 1000 to 10000 nM, an IC50 (IDH2 R140Q) of 100 to 1000 nM and an IC50 [1] of 100 to 1000 nM.
Work on c1ccc(-c2nc(Nc3ccncc3)nc(NC3COC3)n2)cc1 [Compound 236, N^2-(oxetan-3-yl)-6-phenyl-N^4-(pyridin-4-yl)-1,3,5-triazine-2,4-diamine] yielded an IC50 (IDH2 R172K) of 1000 to 10000 nM, an IC50 (IDH2 R140Q) of 100 to 1000 nM and an IC50 [1] of 100 to 1000 nM.
Molecule c1ccc(Nc2nc(NCC3CCO3)nc(-c3ccccc3)n2)cc1 (stereo not drawn) [Compound 237, N^2-(oxetan-2-ylmethyl)-N^4,6-diphenyl-1,3,5-triazine-2,4-diamine] has an IC50 (IDH2 R172K) of 1000 to 10000 nM, an IC50 (IDH2 R140Q) of 100 to 1000 nM and an IC50 [1] of 100 to 1000 nM.
Work on OCCNc1nc(Nc2ccccc2)nc(-c2ccccc2)n1 [Compound 238, 2-(4-phenyl-6-(phenylamino)-1,3,5-triazin-2-ylamino)ethanol] yielded an IC50 (IDH2 R172K) of 1000 to 10000 nM, an IC50 (IDH2 R140Q) of 100 to 1000 nM and an IC50 [1] of 100 to 1000 nM.
Work on CC(C)(CO)CNc1nc(Nc2ccccc2)nc(-c2ccccc2)n1 [Compound 239, 2,2-dimethyl-3-(4-phenyl-6-(phenylamino)-1,3,5-triazin-2-ylamino)propan-1-ol] yielded an IC50 (IDH2 R172K) of 100 to 1000 nM, an IC50 (IDH2 R140Q) of less than 100 nM and an IC50 [1] of less than 100 nM.
For CC(O)CNc1nc(Nc2ccccc2)nc(-c2ccccc2)n1 (stereo not drawn) [Compound 240, 1-(4-phenyl-6-(phenylamino)-1,3,5-triazin-2-ylamino)propan-2-ol], the IC50 (IDH2 R172K) was 1000 to 10000 nM, the IC50 (IDH2 R140Q) was less than 100 nM and the IC50 [1] was 100 to 1000 nM.
CC(CO)Nc1nc(Nc2ccccc2)nc(-c2ccccc2)n1 (stereo not drawn) [Compound 241, 2-(4-phenyl-6-(phenylamino)-1,3,5-triazin-2-ylamino)propan-1-ol] showed an IC50 (IDH2 R172K) of 1000 to 10000 nM, an IC50 (IDH2 R140Q) of less than 100 nM and an IC50 [1] of 100 to 1000 nM.
In the case of CC(C)C(CO)Nc1nc(Nc2ccccc2)nc(-c2ccccc2)n1 (stereo not drawn) [Compound 242, 3-methyl-2-(4-phenyl-6-(phenylamino)-1,3,5-triazin-2-ylamino)butan-1-ol], the IC50 (IDH2 R172K) is reported as 1000 to 10000 nM, the IC50 (IDH2 R140Q) is reported as 100 to 1000 nM and the IC50 [1] is reported as 100 to 1000 nM.
CC(C)OCC(=O)Nc1nc(Nc2ccccc2)nc(-c2ccccc2)n1 [Compound 244, 2-isopropoxy-N-(4-phenyl-6-(phenylamino)-1,3,5-triazin-2-yl)acetamide] gave an IC50 (IDH2 R172K) of 100 to 1000 nM, an IC50 (IDH2 R140Q) of 100 to 1000 nM and an IC50 [1] of 1000 to 10000 nM.
CC1(C(=O)Nc2nc(Nc3ccccc3)nc(-c3ccccc3)n2)CC1 [Compound 245] gave an IC50 (IDH2 R172K) of 100 to 1000 nM, an IC50 (IDH2 R140Q) of less than 100 nM and an IC50 [1] of 100 to 1000 nM.
Work on CC(C)Nc1nc(Nc2cccc(C#N)c2)nc(-c2ccccn2)n1 [Compound 246, 3-(4-(isopropylamino)-6-(pyridin-2-yl)-1,3,5-triazin-2-ylamino)benzonitrile] yielded an IC50 (IDH2 R172K) of 100 to 1000 nM, an IC50 (IDH2 R140Q) of 100 to 1000 nM and an IC50 [1] of less than 100 nM.
CC(C)Nc1nc(Nc2ccccc2)nc(-c2cccc(C(F)(F)F)n2)n1 [Compound 247, N^2-isopropyl-N^4-phenyl-6-(6-(trifluoromethyl)pyridin-2-yl)-1,3,5-triazine-2,4-diamine] was tested, and the IC50 (IDH2 R172K) was less than 100 nM, the IC50 (IDH2 R140Q) was less than 100 nM and the IC50 [1] was less than 100 nM.
For CCNc1nc(Nc2ccncc2)nc(-c2ccccc2)n1 [Compound 248, N^2-ethyl-6-phenyl-N^4-(pyridin-4-yl)-1,3,5-triazine-2,4-diamine], the IC50 (IDH2 R172K) was 1000 to 10000 nM, the IC50 (IDH2 R140Q) was less than 100 nM and the IC50 [1] was 100 to 1000 nM.
Work on CCCNc1nc(Nc2ccncc2)nc(-c2ccccc2)n1 [Compound 249, 6-phenyl-N^2-propyl-N^4-(pyridin-4-yl)-1,3,5-triazine-2,4-diamine] yielded an IC50 (IDH2 R172K) of 100 to 1000 nM, an IC50 (IDH2 R140Q) of less than 100 nM and an IC50 [1] of 100 to 1000 nM.
In the case of c1ccc(-c2nc(NCC3CCC3)nc(Nc3ccncc3)n2)cc1 [Compound 250, N^2-(cyclobutylmethyl)-6-phenyl-N^4-(pyridin-4-yl)-1,3,5-triazine-2,4-diamine], the IC50 (IDH2 R172K) is reported as 100 to 1000 nM, the IC50 (IDH2 R140Q) is reported as less than 100 nM and the IC50 [1] is reported as 100 to 1000 nM.
Molecule FC1(F)CC(Nc2nc(Nc3ccncc3)nc(-c3ccccc3)n2)C1 [Compound 253, N^2-(3,3-difluorocyclobutyl)-6-phenyl-N^4-(pyridin-4-yl)-1,3,5-triazine-2,4-diamine] has an IC50 (IDH2 R172K) of 100 to 1000 nM, an IC50 (IDH2 R140Q) of less than 100 nM and an IC50 [1] of less than 100 nM.
